B1: co-crystal DNA 13 bp + overhangs (dsDNA)
DNA 1: TTCAAAAAGTCCCA
DNA 2: ATGGGACTTTTTGA

Legend:
CamA [1] = biological target: T1, CamA (Clostridioides difficile, UniProt Q183J3); test: isothermal titration calorimetry, one-site fit; format: binding
T1 construct: gene CD630_27580; full length, 577 residues; N-terminal His-SUMO tag cut by ULP protease leaving His-Met; E. coli Rosetta, plasmid pXC2184; active as monomer

CamA [2] = biological target: T1, CamA; test: MTase-Glo luminescence assay of SAH formation; format: biochemical; conditions: 20 µM dsDNA substrate (CAAAAA site), 50 nM CamA, 100 mM NaCl, 20 mM Tris-HCl pH 7.5, ~22 °C, 2.5 min
CamA SeMet = biological target: T2, CamA SeMet (Clostridioides difficile 630, UniProt Q183J3 1-577); test: X-ray crystallography; no cofactor; ITC at 25 C: 200 uM DNA into 18-20 uM CamA, 20 mM HEPES pH 8.0, 0.5 mM TCEP, 5% glycerol, 150 or 250 mM NaCl (cofactor comparison at 250 mM NaCl); conditions: protein: recombinant; tags: His-SUMO cleaved, leaves N-terminal His-Met; 5' overhang 1 nt at each end (T / A)
T2 sequence: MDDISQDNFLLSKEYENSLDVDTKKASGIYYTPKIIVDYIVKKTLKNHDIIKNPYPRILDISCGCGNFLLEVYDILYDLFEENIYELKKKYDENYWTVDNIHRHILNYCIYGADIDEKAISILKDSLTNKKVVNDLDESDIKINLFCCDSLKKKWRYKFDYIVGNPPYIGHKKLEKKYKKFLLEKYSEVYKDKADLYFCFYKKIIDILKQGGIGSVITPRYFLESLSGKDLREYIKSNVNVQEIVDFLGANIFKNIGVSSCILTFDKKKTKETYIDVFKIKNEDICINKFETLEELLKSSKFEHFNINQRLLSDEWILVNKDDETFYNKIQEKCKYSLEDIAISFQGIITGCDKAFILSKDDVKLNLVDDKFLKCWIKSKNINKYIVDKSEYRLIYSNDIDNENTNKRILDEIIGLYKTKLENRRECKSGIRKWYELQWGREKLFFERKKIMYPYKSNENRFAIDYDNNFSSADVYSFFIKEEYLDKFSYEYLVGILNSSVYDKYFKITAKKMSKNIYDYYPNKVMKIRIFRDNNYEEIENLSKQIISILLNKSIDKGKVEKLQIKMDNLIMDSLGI

CamA [3] = biological target: T3, CamA (Clostridioides difficile 630, UniProt Q183J3 1-577); test: X-ray crystallography; no cofactor bound (SAH dissociated); 2.68 A; ITC at 25 C: 200 uM DNA into 18-20 uM CamA, 20 mM HEPES pH 8.0, 0.5 mM TCEP, 5% glycerol, 150 or 250 mM NaCl (cofactor comparison at 250 mM NaCl); conditions: protein: recombinant; tags: His-SUMO cleaved, leaves N-terminal His-Met; 5' overhang 1 nt at each end (T / A)
T3 sequence: T2 sequence

Molecule | Kd (CamA [1]) [µM] | Km (CamA [2]) [µM] | binding result (CamA SeMet) | binding result (CamA [3])
Nc1ncnc2c1ncn2[C@@H]1O[C@H](C[C@@H](N)CC[C@H](N)C(=O)O)[C@@H](O)[C@H]1O [sinefungin] | 19 |  |  | 
C[S+](CC[C@H](N)C(=O)O)C[C@H]1O[C@@H](n2cnc3c(N)ncnc32)[C@H](O)[C@@H]1O (stereo partly drawn) [SAM] | 23 to 35 | > 17 |  | 
Nc1ncnc2c1ncn2[C@@H]1O[C@H](CSCC[C@H](N)C(=O)O)[C@@H](O)[C@H]1O [SAH] | 8 |  |  | 
B1 |  |  | binds | binds
